Experimental data reported in patent US20170050957A1, “4-AMINO-6-(HETEROCYCLIC)PICOLINATES AND 6-AMINO-2-(HETEROCYCLIC)PYRIMIDINE-4-CARBOXYLATES AND THEIR USE AS HERBICIDES” (Dow AgroSciences LLC, priority 2013, published 2017).
Read-outs that look alike come from different tables or passages of the source.

Tests used:
[1] = test system: Key Grass and Sedge Weeds as well as Grass Crops; assay: Post-emergent Test II herbicidal activity (Table 16); format: in vivo; settings: post-emergence, 336 h, 14 d; for pest or weed control at 35 g/ha: 35 g ai/ha; for pest or weed control at 70 g/ha: 70 g ai/ha; for pest or weed control at 140 g/ha: 140 g ai/ha
In short: (§1)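 Plants at first-second true leaf stage, grown 7-21 d in greenhouse (~15 h photoperiod, 23-29 °C day), were track-sprayed at 187 L/ha with compound in acetone/DMSO/water/isopropanol/crop oil/Triton X-155 at a high rate plus 1/2× to 1/16× dilutions. Injury scored visually after 14 d versus untreated plants, 0 (none) to 100% (complete kill).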

[2] = test system: Key Broadleaf Weed and Crop Species; assay: Post-emergent Test II herbicidal activity (Table 15); format: in vivo; settings: post-emergence, 336 h, 14 d; for pest or weed control at 35 g/ha: 35 g ai/ha; for pest or weed control at 70 g/ha: 70 g ai/ha; for pest or weed control at 140 g/ha: 140 g ai/ha
In short: as §1

[3] = Cyperus esculentus, yellow nutsedge (Cyperus esculentus), read-out: Visual Growth Reduction (%) 14 Days After Application, CYPES
[4] = Echinochloa crus-galli, barnyardgrass (Echinochloa crus-galli), read-out: Visual Growth Reduction (%) 14 Days After Application, ECHCG
[5] = Oryza sativa, rice (Oryza sativa), read-out: Visual Growth Reduction (%) 14 Days After Application, ORYSA
[6] = Setaria faberi, giant foxtail (Setaria faberi), read-out: Visual Growth Reduction (%) 14 Days After Application, SETFA
[7] = Triticum aestivum, wheat, spring (Triticum aestivum), read-out: Visual Growth Reduction (%) 14 Days After Application, TRZAS
[8] = Zea mays, maize, corn (Zea mays), read-out: Visual Growth Reduction (%) 14 Days After Application, ZEAMX
[9] = Abutilon theophrasti, velvetleaf (Abutilon theophrasti), read-out: Visual Growth Reduction (%) 14 Days After Application, ABUTH
[10] = Amaranthus retroflexus, redroot pigweed (Amaranthus retroflexus), read-out: Visual Growth Reduction (%) 14 Days After Application, AMARE
[11] = Brassica napus, oilseed rape, canola (Brassica napus), read-out: Visual Growth Reduction (%) 14 Days After Application, BRSNN
[12] = Chenopodium album, lambsquarters (Chenopodium album), read-out: Visual Growth Reduction (%) 14 Days After Application, CHEAL
[13] = Euphorbia heterophylla, wild poinsettia (Euphorbia heterophylla), read-out: Visual Growth Reduction (%) 14 Days After Application, EPHHL
[14] = Helianthus annuus, sunflower (Helianthus annuus), read-out: Visual Growth Reduction (%) 14 Days After Application, HELAN

Structure (SMILES)	pest or weed control at 35 g/ha [1, 3] [%]	pest or weed control at 70 g/ha [1, 3] [%]	pest or weed control at 140 g/ha [1, 3] [%]	pest or weed control at 35 g/ha [1, 5] [%]	pest or weed control at 70 g/ha [1, 5] [%]	pest or weed control at 140 g/ha [1, 5] [%]	pest or weed control at 35 g/ha [1, 6] [%]	pest or weed control at 70 g/ha [1, 6] [%]	pest or weed control at 140 g/ha [1, 6] [%]	pest or weed control at 35 g/ha [1, 7] [%]	pest or weed control at 70 g/ha [1, 7] [%]	pest or weed control at 140 g/ha [1, 7] [%]	pest or weed control at 35 g/ha [1, 8] [%]	pest or weed control at 70 g/ha [1, 8] [%]	pest or weed control at 140 g/ha [1, 8] [%]	pest or weed control at 35 g/ha [2, 9] [%]	pest or weed control at 70 g/ha [2, 9] [%]	pest or weed control at 140 g/ha [2, 9] [%]	pest or weed control at 35 g/ha [2, 10] [%]	pest or weed control at 70 g/ha [2, 10] [%]	other results
Nc1c(F)c(-c2ccc(Cl)c3occc23)nc(C(=O)O)c1Cl [Compound 2.18]	0 to 29	0 to 29	0 to 29	0 to 29	0 to 29	0 to 29	0 to 29	0 to 29	0 to 29	0 to 29	0 to 29	0 to 29	0 to 29	0 to 29	0 to 29	0 to 29	0 to 29	0 to 29	95 to 100	95 to 100	pest or weed control at 35 g/ha [1, 4]: 0 to 29%; pest or weed control at 70 g/ha [1, 4]: 0 to 29%; pest or weed control at 140 g/ha [1, 4]: 0 to 29%; pest or weed control at 140 g/ha [2, 10]: 95 to 100%; pest or weed control at 35 g/ha [2, 11]: 45 to 59%; pest or weed control at 70 g/ha [2, 11]: 60 to 74%; pest or weed control at 140 g/ha [2, 11]: 60 to 74%; pest or weed control at 35 g/ha [2, 12]: 85 to 94%; pest or weed control at 70 g/ha [2, 12]: 85 to 94%; pest or weed control at 140 g/ha [2, 12]: 85 to 94%; pest or weed control at 35 g/ha [2, 13]: 0 to 29%; pest or weed control at 70 g/ha [2, 13]: 0 to 29%; pest or weed control at 140 g/ha [2, 13]: 0 to 29%; pest or weed control at 35 g/ha [2, 14]: 75 to 84%; pest or weed control at 70 g/ha [2, 14]: 75 to 84%; pest or weed control at 140 g/ha [2, 14]: 85 to 94%
COC(=O)c1nc(-c2ccc(Cl)c3occc23)nc(N)c1Cl [Compound 2.20]	0 to 29	0 to 29	0 to 29	0 to 29	0 to 29	0 to 29	0 to 29	30 to 44	60 to 74	0 to 29	0 to 29	0 to 29	0 to 29	0 to 29	0 to 29	45 to 59	60 to 74	60 to 74	95 to 100	95 to 100	pest or weed control at 140 g/ha [2, 10]: 95 to 100%; pest or weed control at 35 g/ha [2, 11]: 0 to 29%; pest or weed control at 70 g/ha [2, 11]: 0 to 29%; pest or weed control at 140 g/ha [2, 11]: 30 to 44%; pest or weed control at 35 g/ha [2, 12]: 85 to 94%; pest or weed control at 70 g/ha [2, 12]: 95 to 100%; pest or weed control at 140 g/ha [2, 12]: 95 to 100%; pest or weed control at 35 g/ha [2, 13]: 0 to 29%; pest or weed control at 70 g/ha [2, 13]: 0 to 29%; pest or weed control at 140 g/ha [2, 13]: 0 to 29%; pest or weed control at 35 g/ha [2, 14]: 85 to 94%; pest or weed control at 70 g/ha [2, 14]: 95 to 100%; pest or weed control at 140 g/ha [2, 14]: 95 to 100%
COC(=O)c1nc(-c2ccc(Cl)c3occc23)nc(N)c1OC [Compound 2.21]	0 to 29	0 to 29	0 to 29	0 to 29	0 to 29	0 to 29	0 to 29	0 to 29	0 to 29	0 to 29	0 to 29	0 to 29	0 to 29	0 to 29	0 to 29	30 to 44	60 to 74	60 to 74	95 to 100	95 to 100	pest or weed control at 140 g/ha [2, 10]: 95 to 100%; pest or weed control at 35 g/ha [2, 11]: 30 to 44%; pest or weed control at 70 g/ha [2, 11]: 30 to 44%; pest or weed control at 140 g/ha [2, 11]: 45 to 59%; pest or weed control at 35 g/ha [2, 12]: 85 to 94%; pest or weed control at 70 g/ha [2, 12]: 85 to 94%; pest or weed control at 140 g/ha [2, 12]: 95 to 100%; pest or weed control at 35 g/ha [2, 13]: 0 to 29%; pest or weed control at 70 g/ha [2, 13]: 0 to 29%; pest or weed control at 140 g/ha [2, 13]: 0 to 29%; pest or weed control at 35 g/ha [2, 14]: 60 to 74%; pest or weed control at 70 g/ha [2, 14]: 75 to 84%; pest or weed control at 140 g/ha [2, 14]: 75 to 84%
